# Assay results as given in ChEMBL document CHEMBL1201862, “PubChem BioAssay data set” (2004).
# Calls of active or inactive are those of the source.
# How the values were obtained:
# Vero [1] = experiment: cells; assay type: functional, cell-based; details: Chlorocebus sabaeus
# Vero [2] = experiment: cells; assay type: functional; details: Chlorocebus sabaeus
# [3] = molecular target: T1, High affinity choline transporter 1 (Homo sapiens, UniProt Q9GZV3); experiment: CHT inhibitors, dose response, cell-based, 5-point CRC, membrane potential dye (AID 504840); assay type: functional
# T1 sequence (Q9GZV3 whole entry): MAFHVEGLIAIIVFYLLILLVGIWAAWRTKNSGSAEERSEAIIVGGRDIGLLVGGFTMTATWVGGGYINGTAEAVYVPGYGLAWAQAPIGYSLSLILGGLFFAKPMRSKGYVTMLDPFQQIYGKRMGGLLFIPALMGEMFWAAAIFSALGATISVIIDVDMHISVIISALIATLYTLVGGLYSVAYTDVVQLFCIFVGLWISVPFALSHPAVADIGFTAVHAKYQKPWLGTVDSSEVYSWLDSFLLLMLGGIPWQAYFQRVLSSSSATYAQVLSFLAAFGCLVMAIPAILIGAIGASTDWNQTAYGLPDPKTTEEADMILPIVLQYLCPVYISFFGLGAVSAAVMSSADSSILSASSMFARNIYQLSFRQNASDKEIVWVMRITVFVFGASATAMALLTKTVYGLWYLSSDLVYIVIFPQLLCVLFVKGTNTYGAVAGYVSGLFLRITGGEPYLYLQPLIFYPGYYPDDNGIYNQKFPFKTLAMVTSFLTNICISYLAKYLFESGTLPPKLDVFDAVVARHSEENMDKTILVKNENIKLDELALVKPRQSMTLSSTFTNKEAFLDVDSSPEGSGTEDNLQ
# [4] = molecular target: T2, Short transient receptor potential channel 4 (Mus musculus, UniProt Q9QUQ5); experiment: mouse TRPC4 channel inhibitors, dose response, cell-based, HEK293 TRPC4/mu-opioid, Fluo-4 calcium (AID 434942); assay type: functional;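 further: potency of inhibitors blocking the TRPC4 calcium response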
# T2 sequence (Q9QUQ5 whole entry): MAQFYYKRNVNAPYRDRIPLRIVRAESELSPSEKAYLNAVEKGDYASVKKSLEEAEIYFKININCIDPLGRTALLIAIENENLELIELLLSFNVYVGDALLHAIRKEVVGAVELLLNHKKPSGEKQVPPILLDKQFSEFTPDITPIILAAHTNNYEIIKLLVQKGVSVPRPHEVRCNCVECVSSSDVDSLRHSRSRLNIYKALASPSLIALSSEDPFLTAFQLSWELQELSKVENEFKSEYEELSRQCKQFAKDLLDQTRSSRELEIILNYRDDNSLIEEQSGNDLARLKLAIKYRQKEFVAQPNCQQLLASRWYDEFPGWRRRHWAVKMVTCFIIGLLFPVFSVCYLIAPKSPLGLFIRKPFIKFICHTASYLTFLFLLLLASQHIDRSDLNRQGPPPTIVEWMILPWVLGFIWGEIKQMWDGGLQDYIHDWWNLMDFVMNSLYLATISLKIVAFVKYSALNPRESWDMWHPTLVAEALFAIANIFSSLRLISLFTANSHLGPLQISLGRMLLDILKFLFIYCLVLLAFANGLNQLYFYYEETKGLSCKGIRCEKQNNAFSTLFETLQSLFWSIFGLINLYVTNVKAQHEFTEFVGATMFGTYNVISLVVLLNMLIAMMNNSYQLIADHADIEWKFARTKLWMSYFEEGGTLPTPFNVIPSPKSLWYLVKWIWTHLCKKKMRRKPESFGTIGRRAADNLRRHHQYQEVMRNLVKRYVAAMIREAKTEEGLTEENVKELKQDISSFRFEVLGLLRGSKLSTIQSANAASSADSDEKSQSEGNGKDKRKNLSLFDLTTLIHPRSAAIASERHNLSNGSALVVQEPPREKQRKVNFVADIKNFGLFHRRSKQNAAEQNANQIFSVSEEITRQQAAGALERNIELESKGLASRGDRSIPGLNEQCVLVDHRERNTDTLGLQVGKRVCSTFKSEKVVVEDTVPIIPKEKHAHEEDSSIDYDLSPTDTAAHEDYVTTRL
# [5] = tested on: Streptococcus sp. 'group A'; experiment: growth inhibition of control SK(-) GAS strain, dose response, counter-screen for streptokinase expression inhibitor project, luminescence, kanamycin, BacTiterGlo, confirmation (AID 1900); assay type: functional, organism-based
# [6] = molecular target: T3, DNA repair protein RAD52 homolog (Homo sapiens, UniProt P43351); assay type: functional, biochemical
# T3 sequence (P43351 whole entry): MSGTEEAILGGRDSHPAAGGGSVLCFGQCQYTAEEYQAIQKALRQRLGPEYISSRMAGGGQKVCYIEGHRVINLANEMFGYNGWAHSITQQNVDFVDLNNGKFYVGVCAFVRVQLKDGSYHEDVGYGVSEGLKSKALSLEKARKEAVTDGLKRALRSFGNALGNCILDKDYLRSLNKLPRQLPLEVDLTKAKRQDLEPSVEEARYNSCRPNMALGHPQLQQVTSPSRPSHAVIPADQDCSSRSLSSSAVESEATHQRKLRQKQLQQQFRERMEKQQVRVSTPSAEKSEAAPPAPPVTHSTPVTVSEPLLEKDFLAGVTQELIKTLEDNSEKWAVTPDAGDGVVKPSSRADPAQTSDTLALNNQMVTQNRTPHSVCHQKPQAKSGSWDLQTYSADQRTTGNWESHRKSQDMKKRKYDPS
# Streptococcus = experiment: Group A Streptococcus viability loss, dose response, counter-screen for streptokinase expression inhibitor project, luminescence, BacTiterGlo (AID 1915); assay type: functional, organism-based;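 further: potency for reduction of bacterial viability or growth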
# Streptokinase A = molecular target: T4, Streptokinase A (Streptococcus pyogenes serotype M1, UniProt P10520); experiment: S. pyogenes streptokinase expression inhibitors, potency, dose response, plasminogen activation absorbance, OD405 (AID 1914); assay type: functional, Streptococcus pyogenes M1 GAS;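 further: secreted streptokinase activity via plasminogen activation per viability signal from cell pellet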
# T4 sequence (P10520 whole entry): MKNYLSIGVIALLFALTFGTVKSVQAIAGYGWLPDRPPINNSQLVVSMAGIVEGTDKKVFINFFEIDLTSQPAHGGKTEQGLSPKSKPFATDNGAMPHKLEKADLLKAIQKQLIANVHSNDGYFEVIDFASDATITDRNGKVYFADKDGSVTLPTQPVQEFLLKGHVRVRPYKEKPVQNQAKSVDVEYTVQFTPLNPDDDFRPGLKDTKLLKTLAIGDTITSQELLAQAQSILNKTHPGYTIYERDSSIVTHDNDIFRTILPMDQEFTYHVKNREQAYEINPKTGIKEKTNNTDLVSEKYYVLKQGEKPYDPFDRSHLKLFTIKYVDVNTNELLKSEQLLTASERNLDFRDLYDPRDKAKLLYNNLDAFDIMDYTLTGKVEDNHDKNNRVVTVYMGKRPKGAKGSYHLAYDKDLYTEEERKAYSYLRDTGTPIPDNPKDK
# [7] = molecular target: T5, Corticotropin-releasing factor receptor 2/Corticotropin-releasing factor-binding protein (Homo sapiens, UniProt P24387+Q13324); experiment: activators of CRF receptor 2 with binding protein – uHTS hits, confirmation (AID 602473); assay type: functional; details: read-out: EC50_Mean
# T5 sequence (Q13324 whole entry): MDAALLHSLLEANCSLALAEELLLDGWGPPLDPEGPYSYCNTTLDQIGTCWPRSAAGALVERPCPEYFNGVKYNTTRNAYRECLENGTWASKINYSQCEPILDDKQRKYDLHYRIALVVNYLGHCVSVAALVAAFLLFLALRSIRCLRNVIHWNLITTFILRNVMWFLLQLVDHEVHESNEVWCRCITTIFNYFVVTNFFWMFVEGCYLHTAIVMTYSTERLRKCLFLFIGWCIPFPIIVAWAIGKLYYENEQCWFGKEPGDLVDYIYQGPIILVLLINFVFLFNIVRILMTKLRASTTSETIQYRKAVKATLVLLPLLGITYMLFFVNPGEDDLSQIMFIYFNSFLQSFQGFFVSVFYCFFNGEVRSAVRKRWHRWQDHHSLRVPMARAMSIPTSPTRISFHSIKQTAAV
# T5 sequence (P24387 whole entry): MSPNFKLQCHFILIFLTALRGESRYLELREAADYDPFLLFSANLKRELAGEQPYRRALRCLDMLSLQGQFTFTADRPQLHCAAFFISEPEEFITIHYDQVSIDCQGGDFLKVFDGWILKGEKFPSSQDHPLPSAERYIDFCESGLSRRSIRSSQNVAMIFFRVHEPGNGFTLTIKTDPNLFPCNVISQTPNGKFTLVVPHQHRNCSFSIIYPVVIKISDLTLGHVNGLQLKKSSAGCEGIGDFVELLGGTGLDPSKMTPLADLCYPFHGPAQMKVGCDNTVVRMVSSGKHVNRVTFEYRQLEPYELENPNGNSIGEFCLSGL
# Genome polyprotein = Genome polyprotein (dengue virus type 2, UniProt P29990); experiment: Dengue-2 NS5 methyltransferase inhibitors, primary screen, biochemical, confirmation dose response (AID 588689); assay type: functional
# [8] = molecular target: T5, Corticotropin-releasing factor receptor 2/Corticotropin-releasing factor-binding protein; experiment: Dose Response confirmation of uHTS hits for small molecule antagonists of the CRF-binding protein and CRF-R2 receptor complex.; assay type: functional; details: read-out: IC50_Mean
# [9] = C. albicans growth with fluconazole, confirmation, fluorescence, retest (AID 2467); assay type: functional, cell-based
# HEK293 = experiment: inhibitors of LMP1-driven NF-kB reporter, dose response, cell-based, HEK293, luciferase, cherry-pick (AID 588343); assay type: functional; details: Homo sapiens
# [10] = NIH-3T3 fibroblast cytotoxicity, dose response, cytotoxicity control, cell-based, fluorescence, Alamar Blue, secondary assay (AID 2327); assay type: functional;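 further: NIH-3T3 mouse fibroblasts cultured with fluconazole at 8 µg/mL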
# Paired box protein Pax-8 = Paired box protein Pax-8 (Homo sapiens, UniProt Q06710); experiment: inhibitors of PAX8-driven TPO luciferase reporter, dose response, RMG-I cells, cherry-pick (AID 687027); assay type: functional, cell-based;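 further: luciferase reporter driven by Pax8 target thyroperoxidase promoter measured by SteadyGlo luminescence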
# [11] = molecular target: T6, Microphthalmia-associated transcription factor (Homo sapiens, UniProt O75030); experiment: TRPM1 promoter luciferase signal decrease, dose response, MITF inhibitor project, cell-based, SK-MEL-5, cherry-picked, set 3 (AID 493073); assay type: functional
# T6 sequence (O75030 whole entry): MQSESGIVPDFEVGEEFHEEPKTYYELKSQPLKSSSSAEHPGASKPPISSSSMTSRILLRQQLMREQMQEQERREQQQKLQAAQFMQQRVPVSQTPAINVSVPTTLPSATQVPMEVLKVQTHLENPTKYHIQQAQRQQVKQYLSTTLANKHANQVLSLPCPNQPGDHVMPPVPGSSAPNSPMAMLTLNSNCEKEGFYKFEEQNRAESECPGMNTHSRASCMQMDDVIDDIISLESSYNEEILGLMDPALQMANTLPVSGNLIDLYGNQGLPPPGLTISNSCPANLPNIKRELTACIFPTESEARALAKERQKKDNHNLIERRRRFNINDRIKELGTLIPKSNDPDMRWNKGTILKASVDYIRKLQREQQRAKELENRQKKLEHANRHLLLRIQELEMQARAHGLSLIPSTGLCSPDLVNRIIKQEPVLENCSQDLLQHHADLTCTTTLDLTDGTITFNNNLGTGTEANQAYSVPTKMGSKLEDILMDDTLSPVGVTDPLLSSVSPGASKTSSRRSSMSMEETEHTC
# [12] = HEp-2 cell cytotoxicity, dose response, cytotoxicity control for RSV inhibitor project, HTS (AID 2410); assay type: functional; details: human respiratory syncytial virus
# Chain of Paired box protein Pax-8 (Q06710 whole entry): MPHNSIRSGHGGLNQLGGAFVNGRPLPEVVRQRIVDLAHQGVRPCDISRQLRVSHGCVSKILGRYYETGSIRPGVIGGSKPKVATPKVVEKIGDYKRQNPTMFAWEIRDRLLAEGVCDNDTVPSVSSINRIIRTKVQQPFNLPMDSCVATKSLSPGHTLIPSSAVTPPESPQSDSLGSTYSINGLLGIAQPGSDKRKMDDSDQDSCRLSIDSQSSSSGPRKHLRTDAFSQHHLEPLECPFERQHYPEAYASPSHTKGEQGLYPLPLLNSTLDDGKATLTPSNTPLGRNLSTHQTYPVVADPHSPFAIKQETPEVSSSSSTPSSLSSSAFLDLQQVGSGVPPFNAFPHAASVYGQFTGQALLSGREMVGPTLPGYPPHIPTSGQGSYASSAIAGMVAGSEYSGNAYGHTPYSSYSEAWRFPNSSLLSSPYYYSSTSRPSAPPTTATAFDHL
# Chain of Genome polyprotein (P29990 2492-3391 limits assumed): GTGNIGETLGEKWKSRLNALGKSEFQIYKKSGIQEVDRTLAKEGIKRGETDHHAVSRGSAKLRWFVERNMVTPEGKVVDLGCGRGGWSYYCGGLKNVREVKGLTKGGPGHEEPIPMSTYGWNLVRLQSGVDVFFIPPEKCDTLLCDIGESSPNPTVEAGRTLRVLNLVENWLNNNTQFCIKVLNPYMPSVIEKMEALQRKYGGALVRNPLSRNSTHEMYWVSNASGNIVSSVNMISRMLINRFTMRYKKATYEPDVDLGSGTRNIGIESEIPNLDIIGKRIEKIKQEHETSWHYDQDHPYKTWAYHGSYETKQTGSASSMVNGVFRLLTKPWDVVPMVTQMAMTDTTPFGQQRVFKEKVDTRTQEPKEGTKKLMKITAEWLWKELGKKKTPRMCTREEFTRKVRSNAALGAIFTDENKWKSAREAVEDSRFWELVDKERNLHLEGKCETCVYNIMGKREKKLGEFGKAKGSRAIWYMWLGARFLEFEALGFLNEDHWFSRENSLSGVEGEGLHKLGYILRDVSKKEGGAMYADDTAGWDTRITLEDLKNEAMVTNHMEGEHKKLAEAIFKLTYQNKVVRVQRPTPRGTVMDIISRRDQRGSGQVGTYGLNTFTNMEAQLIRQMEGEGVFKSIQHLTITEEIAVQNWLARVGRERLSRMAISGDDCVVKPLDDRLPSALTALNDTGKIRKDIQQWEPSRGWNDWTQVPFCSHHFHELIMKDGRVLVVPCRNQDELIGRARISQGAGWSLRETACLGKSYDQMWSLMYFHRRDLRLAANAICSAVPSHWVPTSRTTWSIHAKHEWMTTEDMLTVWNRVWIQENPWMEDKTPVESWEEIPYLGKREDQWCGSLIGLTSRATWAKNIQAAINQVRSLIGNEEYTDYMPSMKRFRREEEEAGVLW
smiles,measurement,setting,value
Clc1ccc(-c2cc(C3CCNCC3)[nH]n2)c(Cl)c1,IC50,Vero [1],24.8 µM (active)
same,CC50,Vero [2],> 25 µM (active)
Cc1cc(C)cc(OC(C)C(=O)Nc2ccc(S(=O)(=O)Nc3cc(C)nc(C)n3)cc2)c1 (configuration not stated),IC50,[3],13.2 µM (active)
Cc1nn(C(C)C(=O)NC(C)CCc2ccccc2)c(=O)c2cc3occc3n12 (configuration not stated),IC50,[3],17.4 µM (active)
COc1cc(C(=O)N(CCc2ccccc2)C2=CC3CCC(C2)N3C)cc(OC)c1OC (configuration not stated),EC50,[4],0.335 µM (active)
Cc1[nH]c2ccc(C(=O)OC(C)C(=O)N(C)c3ccccc3)cc2c1C (configuration not stated),EC50,[4],0.749 µM (active)
CCCCCCCCCCCCOC(=O)C[N+](C)(C)C,EC50,[4],2.99 µM (active)
same,EC50,[5],3.32 µM (active)
same,AC50,[6],26.4 µM (active)
same,EC50,Streptococcus,10.6 µM (active)
same,EC50,Streptokinase A,20.7 µM (active)
Cc1ccccc1C(=O)c1cccn1CC(=O)NC(C)c1ccccc1 (configuration not stated),IC50,[3],12.6 µM (active)
COc1cccc(/C=C2\SC(=S)N(NS(=O)(=O)c3ccccc3)C2=O)c1OC,EC50,[7],> 53 µM (inactive)
same,IC50,Genome polyprotein,41.1 µM (active)
same,IC50,[3],0.692 µM (active)
same,IC50,[8],22.3 µM (active)
Brc1cccc(CSc2nnc(-c3ccncc3)o2)c1,EC50,[9],> 38 µM (not active)
same,AC50,HEK293,47 µM (active)
same,EC50,[10],41.1 µM (active)
CC(=O)O[C@H]1C[C@H](O[C@H]2[C@@H](O)C[C@H](O[C@H]3[C@@H](O)C[C@H](O[C@H]4CC[C@@]5(C)[C@H](CC[C@@H]6[C@@H]5CC[C@]5(O)[C@@H](C7=CC(=O)OC7)CC[C@]65O)C4)O[C@@H]3C)O[C@@H]2C)O[C@H](C)[C@H]1O[C@@H]1O[C@H](CO)[C@@H](O)[C@H](O)[C@H]1O,IC50,Vero [1],< 0.05 µM (active)
same,AC50,Paired box protein Pax-8,1.98 µM (active)
same,CC50,Vero [2],1.78 µM (active)
CC1(CCCc2ccc(N(CCCl)CCCl)cc2)NC(=O)NC1=O (configuration not stated),AC50,HEK293,4.51 µM (active)
N=c1n(CCO)c2ccccc2n1Cc1ccc(Cl)cc1,EC50,[4],3.35 µM (active)
CC(C)n1c(O)c(C2c3cc(Cl)ccc3Oc3[nH]c(=O)n(C(C)C)c(=O)c32)c(=O)[nH]c1=O (configuration not stated),AC50,[11],5.39 µM (active)
Cc1cc(Nc2ccc(C)c(C)c2)c2ccccc2n1,EC50,[4],2.11 µM (active)
same,CC50,[12],26.1 µM (active)
